Legend:
Type in all cases: cell-based
[1] = test system: p-p70 S6 Kinase (Thr389) in MCF-7 cells; assay: AlphaLISA Ultra pS6K1 assay; conditions: Homo sapiens, 1.5 h; MCF7 cells, 90 min
Outline: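 MCF-7 cells seeded 20–24 h, given fresh medium 2 h, then treated with compounds 90 min (0.5% DMSO final). Cells lysed, lysates frozen at −80 °C, then Thr389-phosphorylated S6K1 detected by AlphaLISA Ultra with acceptor beads 2 h, then donor beads 2 h.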

mTORC1 over mTORC2 = mTORC1 over mTORC2 selectivity by comparing pS6K1 and pAKT IC50; conditions: by comparing pS6K1 and pAKT IC50, 90 min
Outline: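 MCF-7 cells were treated with compounds (0.5% final DMSO) for 90 minutes in one protocol and 2 hours in the other, then lysed. Phospho-signal in lysates was read by bead-based donor/acceptor proximity assay. pS6K1 and pAKT IC50 values were compared to judge mTORC1 over mTORC2 selectivity, at 90 min and at 24 hrs.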

[2] = test system: p-Akt 1/2/3 (Ser473) in MCF-7 cells; assay: AlphaLISA Ultra pAKT assay; conditions: Homo sapiens, 1.5 h; MCF7 cells, 90 min
Outline: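 MCF-7 cells (16,000˜20,000 per well in 36 μL medium) were seeded in Corning 3701 plates for 20˜24 hour, refreshed with new medium for 90 minutes, then given 12 μL of 4× compound (0.5% final DMSO). Cells were lysed with 2× lysis buffer, and lysate was analyzed by AlphaLISA Ultra pAKT using acceptor and donor beads, read on an EnSpire reader.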

| Compound | IC50 [1] | mTORC1 selective @ 90 min (mTORC1 over mTORC2) | IC50 [2] |
| --- | --- | --- | --- |
| CO[C@@H]1C[C@H](C[C@@H](C)[C@@H]2CC(=O)[C@H](C)/C=C(\C)[C@@H](O)[C@@H](OC)C(=O)[C@H](C)C[C@H](C)/C=C/C=C/C=C(\C)C(OCCOC3COC3)C[C@@H]3CC[C@@H](C)[C@@](O)(O3)C(=O)C(=O)N3CCCC[C@H]3C(=O)O2)CC[C@H]1OCCCN1CC2(COC2)C1 (stereo partly drawn) [I-91, (27E,29E,31E,32E,39R,40S,41R,42R,44S,46S,49S,51R,52R,62R)-51,62-dihydroxy-52-methoxy-49-[(1R)-2-[(1S,3R,4R)-3-methoxy-4-[3-(2-oxa-6-azaspiro[3.3]heptan-6-yl)propoxy]cyclohexyl]-1-methyl-ethyl]-39,40,41,42,53,54-hexamethyl-48-[2-(oxetan-3-yloxy)ethoxy]-74,75-dioxa-63-azatricyclohexatriaconta-27,29,31(53),32(54)-tetraene-55,56,57,58,59-pentone] | 1 to 10 nM | Yes | ≥ 1000 nM |
| CO[C@@H]1C[C@H](C[C@@H](C)[C@@H]2CC(=O)[C@H](C)/C=C(\C)[C@@H](O)[C@@H](OC)C(=O)[C@H](C)C[C@H](C)/C=C/C=C/C=C(\C)[C@H](OCC3COCCO3)C[C@@H]3CC[C@@H](C)[C@@](O)(O3)C(=O)C(=O)N3CCCC[C@H]3C(=O)O2)CC[C@H]1OCCCO (stereo partly drawn) [I-92, (24E,26E,28E,29E,35R,36S,37R,38R,40S,42S,44R,45S,47R,48R,57R)-44-(1,4-dioxan-2-ylmethoxy)-47,57-dihydroxy-45-[(1R)-2-[(1S,3R,4R)-4-(3-hydroxypropoxy)-3-methoxy-cyclohexyl]-1-methyl-ethyl]-48-methoxy-35,36,37,38,49,50-hexamethyl-69,70-dioxa-58-azatricyclohexatriaconta-24,26,28(49),29(50)-tetraene-51,52,53,54,55-pentone] | 10 to 100 nM | Yes | ≥ 1000 nM |
| CO[C@@H]1C[C@H](C[C@@H](C)[C@@H]2CC(=O)[C@H](C)/C=C(\C)[C@@H](O)[C@@H](OC)C(=O)[C@H](C)C[C@H](C)/C=C/C=C/C=C(\C)[C@@H](OCC3COCCO3)C[C@@H]3CC[C@@H](C)[C@@](O)(O3)C(=O)C(=O)N3CCCC[C@H]3C(=O)O2)CC[C@H]1OCCCO (stereo partly drawn) [I-93, (24E,26E,28E,29E,35R,36S,37R,38R,40S,42S,44S,45S,47R,48R,57R)-44-(1,4-dioxan-2-ylmethoxy)-47,57-dihydroxy-45-[(1R)-2-[(1S,3R,4R)-4-(3-hydroxypropoxy)-3-methoxy-cyclohexyl]-1-methyl-ethyl]-48-methoxy-35,36,37,38,49,50-hexamethyl-69,70-dioxa-58-azatricyclohexatriaconta-24,26,28(49),29(50)-tetraene-51,52,53,54,55-pentone] | 1 to 10 nM | Yes | ≥ 1000 nM |
| COCCO[C@@H]1CC[C@@H](C[C@@H](C)[C@@H]2CC(=O)[C@H](C)/C=C(\C)[C@@H](OC)[C@@H](OC)C(=O)[C@H](C)C[C@H](C)/C=C/C=C/C=C(\C)C(OCCOC3COC3)C[C@@H]3CC[C@@H](C)[C@@](O)(O3)C(=O)C(=O)N3CCCC[C@H]3C(=O)O2)C[C@H]1OC (stereo partly drawn) [I-94, (25E,27E,29E,30E,36R,37S,38R,39R,41S,43S,46S,48R,49R,58R)-58-hydroxy-48,49-dimethoxy-46-[(1R)-2-[(1S,3R,4R)-3-methoxy-4-(2-methoxyethoxy)cyclohexyl]-1-methyl-ethyl]-36,37,38,39,50,51-hexamethyl-45-[2-(oxetan-3-yloxy)ethoxy]-67,68-dioxa-59-azatricyclohexatriaconta-25,27,29(50),30(51)-tetraene-52,53,54,55,56-pentone] | 10 to 100 nM | Yes | ≥ 1000 nM |
| CO[C@@H]1/C(C)=C/[C@@H](C)C(=O)C[C@@H]([C@H](C)C[C@@H]2CC[C@@H](OC)[C@H](OC)C2)OC(=O)[C@@H]2CCCCN2C(=O)C(=O)[C@]2(O)O[C@@H](CC[C@H]2C)CC(OCCOCCN(C)C)/C(C)=C/C=C/C=C/[C@@H](C)C[C@@H](C)C(=O)[C@@H]1OC (stereo partly drawn) [I-95, (25E,27E,29E,30E,36R,37S,38R,39R,41S,43S,46S,47R,48R,57R)-46-[(1R)-2-[(1S,3R,4R)-3,4-dimethoxycyclohexyl]-1-methyl-ethyl]-45-[2-[2-(dimethylamino)ethoxy]ethoxy]-57-hydroxy-47,48-dimethoxy-36,37,38,39,49,50-hexamethyl-66,67-dioxa-58-azatricyclohexatriaconta-25,27,29(49),30(50)-tetraene-51,52,53,54,55-pentone] | 100 to 1000 nM | Yes | ≥ 1000 nM |
| CO[C@@H]1/C(C)=C/[C@@H](C)C(=O)C[C@@H]([C@H](C)C[C@@H]2CC[C@@H](O)[C@H](OC)C2)OC(=O)[C@@H]2CCCCN2C(=O)C(=O)[C@]2(O)O[C@@H](CC[C@H]2C)C[C@@H](OCCOC2COC2)/C(C)=C/C=C/C=C/[C@@H](C)C[C@@H](C)C(=O)[C@@H]1OC [I-96] | ≥ 1000 nM | No | ≥ 1000 nM |
| CO[C@@H]1C[C@H](C[C@@H](C)[C@@H]2CC(=O)[C@H](C)/C=C(\C)[C@@H](O)[C@@H](OC)C(=O)[C@H](C)C[C@H](C)/C=C/C=C/C=C(\C)C(OCC3COCCO3)C[C@@H]3CC[C@@H](C)[C@@](O)(O3)C(=O)C(=O)N3CCCC[C@H]3C(=O)O2)CC[C@H]1OC(=O)N(C)CCN1CCOCC1 (stereo partly drawn) [I-99, [(40S,42R,44R)-4-[(2R)-2-[(27E,29E,31E,32E,36R,37S,38R,39R,41S,43S,45S,46S,47R,48R,58R)-47,58-dihydroxy-45,48-dimethoxy-36,37,38,39,49,50-hexamethyl-51,52,53,54,55-pentaoxo-71,72-dioxa-60-azatricyclohexatriaconta-27,29,31(49),32(50)-tetraen-46-yl]propyl]-44-methoxy-42-cyclohexyl]N-methyl-N-(2-morpholinoethyl)carbamate] | 1 to 10 nM | Yes | ≥ 1000 nM |
| CO[C@@H]1C[C@H](C[C@@H](C)[C@@H]2CC(=O)[C@H](C)/C=C(\C)[C@@H](O)[C@@H](OC)C(=O)[C@H](C)C[C@H](C)/C=C/C=C/C=C(\C)[C@H](OCCOC3COC3)C[C@@H]3CC[C@@H](C)[C@@](O)(O3)C(=O)C(=O)N3CCCC[C@H]3C(=O)O2)CC[C@H]1OCCCN1C[C@@H](C)O[C@@H](C)C1 [I-100, (27E,29E,31E,32E,39R,40S,41R,44R,46S,48S,50R,51S,53R,54R,63R)-51-[(1R)-2-[(1S,3R,4R)-4-[3-[(2S,6R)-2,6-dimethylmorpholin-4-yl]propoxy]-3-methoxy-cyclohexyl]-1-methyl-ethyl]-53,63-dihydroxy-54-methoxy-39,40,41,44,55,56-hexamethyl-50-[2-(oxetan-3-yloxy)ethoxy]-75,76-dioxa-64-azatricyclohexatriaconta-27,29,31(55),32(56)-tetraene-57,58,59,60,61-pentone] | 1 to 10 nM | Yes | ≥ 1000 nM |
| CO[C@@H]1C[C@H](C[C@@H](C)[C@@H]2CC(=O)[C@H](C)/C=C(\C)[C@@H](O)[C@@H](OC)C(=O)[C@H](C)C[C@H](C)/C=C/C=C/C=C(\C)[C@@H](OCCOC3COC3)C[C@@H]3CC[C@@H](C)[C@@](O)(O3)C(=O)C(=O)N3CCCC[C@H]3C(=O)O2)CC[C@H]1OCCCN1C[C@@H](C)O[C@@H](C)C1 [I-101, (27E,29E,31E,32E,39R,40S,41R,44R,46S,48S,50S,51S,53R,54R,63R)-51-[(1R)-2-[(1S,3R,4R)-4-[3-[(2S,6R)-2,6-dimethylmorpholin-4-yl]propoxy]-3-methoxy-cyclohexyl]-1-methyl-ethyl]-53,63-dihydroxy-54-methoxy-39,40,41,44,55,56-hexamethyl-50-[2-(oxetan-3-yloxy)ethoxy]-75,76-dioxa-64-azatricyclohexatriaconta-27,29,31(55),32(56)-tetraene-57,58,59,60,61-pentone] | 10 to 100 nM | Yes | ≥ 1000 nM |
| CO[C@@H]1C[C@H](C[C@@H](C)[C@@H]2CC(=O)[C@H](C)/C=C(\C)[C@@H](O)[C@@H](OC)C(=O)[C@H](C)C[C@H](C)/C=C/C=C/C=C(\C)[C@H](OCC3COCCO3)C[C@@H]3CC[C@@H](C)[C@@](O)(O3)C(=O)C(=O)N3CCCC[C@H]3C(=O)O2)CC[C@H]1OC(=O)NCCN1CCOCC1 (stereo partly drawn) [I-102, [(42S,44R,46R)-4-[(2R)-2-[(28E,30E,32E,33E,38R,39S,40R,41R,43S,45S,47R,48S,50R,51R,61R)-47-(1,4-dioxan-2-ylmethoxy)-50,61-dihydroxy-51-methoxy-38,39,40,41,52,53-hexamethyl-54,55,56,57,58-pentaoxo-76,77-dioxa-64-azatricyclohexatriaconta-28,30,32(52),33(53)-tetraen-48-yl]propyl]-46-methoxy-44-cyclohexyl] N-(2-morpholinoethyl)carbamate] | < 1 nM | Yes | ≥ 1000 nM |
